Data taken from patent EP0194905A1, “5',5'''-P1,P4-diadenosine-tetraphosphate alpha-,beta-phosphorylase and its use in the preparation of isotope-labelled nucleotides” (priority 1985, dated 1986).
Each block holds one molecule with its values, some of them ahead of it.

Legend:
[1] = biological target: T1, Ap4A-phosphorylase (Saccharomyces cerevisiae, UniProt P16550); assay: Ap4A-phosphorylase activity: initial rates of phosphorolysis of Ap4A and related substrates (PEI-cellulose TLC, radioactivity); assay type: biochemical; conditions: for conversion de l'Ap4A when phosphate is replaced: 10 mM in place of phosphate, 500 µM MnCl2 or 5 mM MgCl2; for substrat de l'Ap4A-phosphorylase (behaviour as substrate): compounds structurally related to Ap4A, in presence of phosphate; for vitesses de phosphorolyse, % du taux observé pour l'Ap4A: standard incubation medium, 500 uM substrate
T1 construct: l'Ap4A phosphorylase est constituée d'une seule chaîne; endogenous in cells; host or cells: Saccharomyces cerevisiae yeast cells; enzyme purified by ammonium sulfate, DEAE-Sephacel, Sephadex G-100, hydroxyapatite and Sephadex G-75 superfine
T1 sequence (P16550 1-321): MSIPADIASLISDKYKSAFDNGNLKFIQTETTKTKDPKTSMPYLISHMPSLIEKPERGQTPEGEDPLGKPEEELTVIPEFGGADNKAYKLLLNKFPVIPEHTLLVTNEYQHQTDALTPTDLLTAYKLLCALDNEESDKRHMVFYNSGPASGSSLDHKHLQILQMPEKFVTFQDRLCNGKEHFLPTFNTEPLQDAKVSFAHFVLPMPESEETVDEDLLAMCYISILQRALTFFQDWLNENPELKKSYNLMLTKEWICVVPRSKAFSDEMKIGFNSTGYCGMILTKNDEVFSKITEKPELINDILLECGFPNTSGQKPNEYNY
Method: (§1) L'activité de l'Ap4A-phosphorylase a été déterminée à 37°C. Le mélange d'incubation standard contenait, dans un volume final de 25 ou 50 µl, du tampon 50 mM acide 4-(2-hydroxyéthyl)-1-pipérazine éthane sulfonique (Hepes)/KOH (pH 8,2), 1 mM 2-mercaptoéthanol, 2 % de glycérol, 500 µM MnCl2, […], 500 uM de [^3H]Ap4A (1 pmol = 20 cpm), de la sérum-albumine bovine (0,4 mg/ml) et une solution d'enzyme diluée de façon appropriée en présence de 2 mg/ml de sérum-albumine bovine. Dans certains cas, l'activité a été suivie à l'aide de [^32P]K2HPO4.
Pour mesurer les vitesses initiales, de phosphorolyse, on a déposé des prélèvements de 2 µl sur des couches minces de polyéthylèneimine-cellulose contenant un indicateur fluorescent (foumies par MERCK) après 2, 4, 8 et 16 min de réaction.
Des standards d'Ap4A et d'ADP ont été ajoutés et les chromatogrammes ont été développés tout d'abord pendant 15 min dans le méthanol à 75 %, puis pendant 1 h dans du chlorure de lithium 0,85 M. Les valeurs Rf des composés standards étaient respectivement de 0,15 (Ap4A) et 0,25 (ADP), la valeur Rf du phosphate était de 0,55. Les taches d'ADP visualisées sous lumière ultraviolette ont été découpées et immergées dans 5 ml de mélange de scintillation et la radioactivité a été mesurée. Au cours des différentes étapes de purification, l'enzyme a été testée en l'absence de radioactivité; les fractions actives ont été afors directement identifiées sur les chromatogrammes sous lumière ultraviolette.
La dégradation enzymatique de l'Ap4A par l'enzyme selon l'invention, c'est-à-dire l'Ap4A-phosphorylase, a été caractérisée par identification des produits de ladite réaction de dégradation par co-migration avec des composés standards authentiques sur des couches minces de polyéthylèneimine-cellulose. Cette identification a été confirmée sur une colonne de Lichrosorb RP-18 (MERCK) en utilisant un système HPLC (chromatographie liquide haute performance) avec une élution isocratique par du phosphate de potassium 25 mM, pH 5,3 selon la méthode de BREVET et al. décrite dans J.Biol.Chem. (1982), 257. 14613-14615. La colonne de chromatographie a été utilisée avec une pompe modèle 112, un injecteur modèle 210 et un détecteur d'absorbance modèle 160 (matériel BECKMAN), en opérant à 254 nm avec une sensibilité de 0,002 unité d'absorbance pleine échelle.

[2] = biological target: T2, AMP-désaminase (Rattus norvegicus, UniProt P10759); conditions: enzyme from rat muscle; cited from earlier work
T2 construct: host or cells: rat muscle
T2 sequence (P10759 1-747): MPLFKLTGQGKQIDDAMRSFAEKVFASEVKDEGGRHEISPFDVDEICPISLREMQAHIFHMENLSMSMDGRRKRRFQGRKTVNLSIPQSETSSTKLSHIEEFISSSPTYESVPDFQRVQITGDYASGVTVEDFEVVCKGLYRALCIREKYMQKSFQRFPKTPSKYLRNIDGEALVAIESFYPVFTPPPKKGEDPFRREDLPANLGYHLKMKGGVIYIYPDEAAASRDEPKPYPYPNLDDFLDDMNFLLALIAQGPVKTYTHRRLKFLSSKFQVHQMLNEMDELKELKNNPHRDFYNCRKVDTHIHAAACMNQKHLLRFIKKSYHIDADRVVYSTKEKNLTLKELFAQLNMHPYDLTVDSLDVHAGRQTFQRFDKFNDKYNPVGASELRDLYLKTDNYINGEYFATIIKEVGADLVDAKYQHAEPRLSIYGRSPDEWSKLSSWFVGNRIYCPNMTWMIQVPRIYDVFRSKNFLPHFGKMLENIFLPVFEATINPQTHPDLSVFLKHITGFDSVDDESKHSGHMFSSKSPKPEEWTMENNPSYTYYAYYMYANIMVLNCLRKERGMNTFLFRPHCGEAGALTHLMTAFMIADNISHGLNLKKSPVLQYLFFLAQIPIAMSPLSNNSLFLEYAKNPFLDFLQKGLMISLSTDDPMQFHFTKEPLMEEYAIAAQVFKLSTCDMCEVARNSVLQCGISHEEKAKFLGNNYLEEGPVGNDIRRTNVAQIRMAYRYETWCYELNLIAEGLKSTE

[3] = biological target: T1, Ap4A-phosphorylase; assay: Effect of divalent metal ions on initial rates of Ap4A phosphorolysis; assay type: biochemical
Method: Les vitesses initiales de la phosphorolyse de l'Ap4A ont été mesurées dans un milieu contenant 50 mM Hepes/KOH (pH 8,2); 1 mM de 2-mercaptoéthanol; 2 % de glycérol et 0,4 mg/ml de sérum-albumine bovine, 5 mM K2HPO4; 500 uM [^3H] Ap4A et différentes concentrations de chlorures de manganèse, de magnésium, de calcium, de cobalt ou de cadmium.
Les résultats obtenus sont indiqués sur le graphe de la figure 2 annexée sur lequel on a porté en ordonnées les vitesses initiales de phosphorolyse de l'Ap4A exprimées en pourcentages de la vitesse observée avec 500 uM MnCl2-(36 s-') et en abscisses la concentration en ions métalliques exprimée en mM.
Les différentes courbes correspondent respectivement aux chlorures ci-après : courbe A (O - O) = MnCl2 [formula] [formula] [formula] [formula]

[4] = biological target: T1, Ap4A-phosphorylase; assay: NDP-P* exchange reaction catalysed by Ap4A-phosphorylase; assay type: biochemical; conditions: AMPS versus ADP
Excerpt: (§2) On a estimé les constantes de Michaelis Km et les vitesses d'échange pour différents NDP au pH optimum, lequel varie en fonction des substrats. Les résultats obtenus sont rassemblés dans le tableau Il ci-après ainsi que les conditions expérimentales.

[5] = tested on: GMP-réductase; conditions: enzyme from Artemia; cited from earlier work
[6] = biological target: T3, GMP-réductase (Homo sapiens, UniProt P36959); conditions: enzyme from human erythrocytes; cited from earlier work
T3 construct: host or cells: human erythrocytes
T3 sequence (P36959 1-345): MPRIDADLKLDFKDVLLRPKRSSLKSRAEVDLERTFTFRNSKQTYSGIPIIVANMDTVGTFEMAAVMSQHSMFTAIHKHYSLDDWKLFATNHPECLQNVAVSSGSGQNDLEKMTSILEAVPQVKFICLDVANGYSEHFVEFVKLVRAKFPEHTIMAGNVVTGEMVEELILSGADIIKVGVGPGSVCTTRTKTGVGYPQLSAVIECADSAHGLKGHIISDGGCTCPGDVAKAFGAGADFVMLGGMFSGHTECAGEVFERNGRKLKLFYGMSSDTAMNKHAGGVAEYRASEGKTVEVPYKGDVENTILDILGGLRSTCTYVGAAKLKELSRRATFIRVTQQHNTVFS

[7] = substrate: Nc1ncnc2c1ncn2[C@@H]1O[C@H](COP(=O)(O)OS(=O)(=O)O)[C@@H](O)[C@H]1O; assay: purified protein, by the assay type; conditions: other: NDP-P* exchange at optimum pH, 37°C
[8] = substrate: Nc1ncnc2c1ncn2[C@@H]1O[C@H](COP(=O)(O)OP(=O)(O)OP(=O)(O)OP(=O)(O)OC[C@H]2O[C@@H](n3cnc4c(N)ncnc43)[C@H](O)[C@@H]2O)[C@@H](O)[C@H]1O; assay: Ap4A-phosphorylase activity: initial rates of phosphorolysis of Ap4A and related substrates (PEI-cellulose TLC, radioactivity); assay type: biochemical, Saccharomyces cerevisiae; conditions: other: 37°C, 50 mM Hepes/KOH pH 8,2, 500 µM MnCl2, 10 mM K2HPO4, 1 mM 2-mercaptoéthanol, 2 % glycérol, pH 8.2
Method: as §1
Pour mesurer les vitesses initiales, de phosphorolyse, on a déposé des prélèvements de 2 µl sur des couches minces de polyéthylèneimine-cellulose contenant un indicateur fluorescent (foumies par MERCK) après 2, 4, 8 et 16 min de réaction. […]
La dégradation enzymatique de l'Ap4A par l'enzyme selon l'invention, c'est-à-dire l'Ap4A-phosphorylase, a été caractérisée par identification des produits de ladite réaction de dégradation par co-migration avec des composés standards authentiques sur des couches minces de polyéthylèneimine-cellulose. […] La colonne de chromatographie a été utilisée avec une pompe modèle 112, un injecteur modèle 210 et un détecteur d'absorbance modèle 160 (matériel BECKMAN), en opérant à 254 nm avec une sensibilité de 0,002 unité d'absorbance pleine échelle.

[9] = substrate: Nc1ccn([C@@H]2O[C@H](COP(=O)(O)OP(=O)(O)O)[C@@H](O)[C@H]2O)c(=O)n1; assay: NDP-P* exchange reaction catalysed by Ap4A-phosphorylase; assay type: biochemical, Saccharomyces cerevisiae; conditions: other: NDP-P* exchange at optimum pH, 37°C
Excerpt: as §2

[10] = substrate: Nc1nc2c(ncn2[C@@H]2O[C@H](COP(=O)(O)OP(=O)(O)O)[C@@H](O)[C@H]2O)c(=O)[nH]1; assay: as above; assay type: biochemical, Saccharomyces cerevisiae; conditions: other: NDP-P* exchange at optimum pH, 37°C
Excerpt: as §2

[11] = substrate: Nc1ncnc2c1ncn2[C@@H]1O[C@H](COP(=O)(O)OP(=O)(O)O)[C@@H](O)[C@H]1O; assay: as above; assay type: biochemical, Saccharomyces cerevisiae; conditions: other: NDP-P* exchange at optimum pH, 37°C
Excerpt: as §2

[12] = substrate: O=c1ccn([C@@H]2O[C@H](COP(=O)(O)OP(=O)(O)O)[C@@H](O)[C@H]2O)c(=O)[nH]1; assay: as above; assay type: biochemical, Saccharomyces cerevisiae; conditions: other: NDP-P* exchange at optimum pH, 37°C
Excerpt: as §2

conversion de l'Ap4A when phosphate is replaced [1]: aucune conversion
Molecule: sulfate

vitesse de la réaction de phosphorolyse ([1]; Ap4A saturant): 36 s⁻¹
substrat de l'Ap4A-phosphorylase (behaviour as substrate) [1]: substrat préféré
Molecule: Nc1ncnc2c1ncn2[C@@H]1O[C@H](COP(=O)(O)OP(=O)(O)OP(=O)(O)OP(=O)(O)OC[C@H]2O[C@@H](n3cnc4c(N)ncnc43)[C@H](O)[C@@H]2O)[C@@H](O)[C@H]1O (single isomer, unassigned; diad) [Ap4A, 5',5"'-P^1,P^4-diadénosine-tétraphosphate]
effect on activité de l'AMP-désaminase [2]: double l'activité

Molecule: MnCl2
vitesse initiale de phosphorolyse de l'Ap4A ([3]; 500 uM MnCl2, 5 mM K2HPO4, 500 uM [3H]Ap4A, pH 8,2 (100 % reference of figure 2)): 36 s-'
activity of metal ions in supporting phosphorolyse de l'Ap4A ([3]; chlorides of Mn, Mg, Ca, Co, Cd at various concentrations (figure 2)): les plus actifs

Km ([1]; phosphorolysis of Ap4A, read-out: Km du phosphate): 1000 µM
Molecule: phosphate

substrat de l'Ap4A-phosphorylase (behaviour as substrate) [1]: ne soient pas des substrats
Molecule: Nc1ncnc2c1ncn2[C@@H]1O[C@H](COP(=O)(O)OP(=O)(O)OP(=O)(O)OP(=O)(O)O)[C@@H](O)[C@H]1O [p4A, Adénosine tétraphosphate]

substrat de l'Ap4A-phosphorylase (behaviour as substrate) [1]: substrats
vitesses de phosphorolyse, % du taux observé pour l'Ap4A [1]: 50%
Molecule: Nc1ncnc2c1ncn2[C@@H]1O[C@H](COP(=O)(O)OP(=O)(O)OP(=O)(O)OP(=O)(O)OP(=O)(O)OC[C@H]2O[C@@H](n3cnc4c(N)ncnc43)[C@H](O)[C@@H]2O)[C@@H](O)[C@H]1O (single isomer, unassigned; diad) [Ap5A, Diadénosine pentaphosphate]

substrat de l'Ap4A-phosphorylase (behaviour as substrate) [1]: ne soient pas des substrats
Molecule: Nc1ncnc2c1ncn2[C@@H]1O[C@H](COP(=O)(O)OP(=O)(O)OP(=O)(O)OC[C@H]2O[C@@H](n3cnc4c(N)ncnc43)[C@H](O)[C@@H]2O)[C@@H](O)[C@H]1O (single isomer, unassigned; diad) [Ap,A, Diadénosine triphosphate]

Molecule: Nc1ncnc2c1ncn2[C@@H]1O[C@H](COP(=O)(O)OS(=O)(=O)O)[C@@H](O)[C@H]1O [AMPS, adénosine 5'-phosphosulfate]
rapport V/km, fold higher than for ADP [4]: ~5 fois

substrat de l'Ap4A-phosphorylase (behaviour as substrate) [1]: substrats
vitesses de phosphorolyse, % du taux observé pour l'Ap4A [1]: 40%
Molecule: Nc1nc2c(ncn2[C@@H]2O[C@H](COP(=O)(O)OP(=O)(O)OP(=O)(O)OP(=O)(O)OC[C@H]3O[C@@H](n4cnc5c(=O)[nH]c(N)nc54)[C@H](O)[C@@H]3O)[C@@H](O)[C@H]2O)c(=O)[nH]1 [Gp4G, Diguanosine tétraphosphate]
effect on GMP-réductase [5]: effet positif spécifique
effect on GMP-réductase [6]: effet positif spécifique

conversion de l'Ap4A when phosphate is replaced [1]: aucune conversion
Molecule: pyrophosphate

B1: Ap4A-phosphorylase (Saccharomyces cerevisiae S288C) (protein)
chain: T1 sequence (P16550 1-321)
notes: l'Ap4A phosphorylase est constituée d'une seule chaîne; endogenous in cells; host or cells: Saccharomyces cerevisiae yeast cells; enzyme purified by ammonium sulfate, DEAE-Sephacel, Sephadex G-100, hydroxyapatite and Sephadex G-75 superfine
Km [7]: 500 µM
Km [8]: 60 µM
Km [9]: 2800 µM
Km [10]: 700 µM
Km [11]: 740 µM
Km [12]: 3700 µM
